From publication PMC4844572 (SpringerPlus, 2016)

Tested on: EstSTR1
Type: biochemical, uncultured bacterium
Details: competitive against 100 μM cephalothin; 10 mM MES pH 6.8, bovine serum albumin 20 μg/ml, enzyme 396 μM as printed; stands in Km column, footnote gives Ki

CO/N=C(\C(=O)N[C@@H]1C(=O)N2C(C(=O)O)=C(COC(C)=O)CS[C@H]12)c1csc(N)n1 [TAX, cefotaxime]
Km (μM) / Wild: 0.90 ± 0.004 µM
